Experimental data reported in article PMC5454376, “Molecular mechanism of Gαi activation by non-GPCR proteins with a Gα-Binding and Activating motif” (Nature Communications, 2017).

Tested on: Gαi3 N269D
Assay: Co-immunoprecipitation in HEK293T cells, Gαi3 N269D versus WT
Type: binding
Details: HEK293T lysates, FLAG-tagged Gαi3 N269D vs WT; GST-Ric-8A 1 μg added
Experimental: HEK293T cells (American Type Culture Collection) were grown at 37 °C in DMEM supplemented with 10% FBS, 100 U ml^−1 penicillin, 100 μg ml^−1 streptomycin, 1% L-glutamine and 5% CO2. DNA plasmids encoding for C-terminally 3xFLAG-tagged Gαi3 (ref. [25]) or an empty plasmid (p3xFLAG-CMV-14) were transfected using the calcium phosphate method in 10 cm dishes. The DNA amount for the Gαi3 N269D plasmid was threefold (12 μg) of that for Gαi3 WT (4 μg) to equalize their expression levels. Cells were collected 48 h after transfection by gently scrapping in PBS, centrifuged and resuspended in 1 ml of lysis buffer (20 mM HEPES (pH 7.2), 5 mM Mg(CH3COO)2, 125 mM K(CH3COO), 0.4% (v:v) Triton X-100, 1 mM DTT, 10 mM β-glycerophosphate and 0.5 mM Na3VO4 supplemented with a protease inhibitor cocktail (Sigma; catalogue #S8830)) and cleared (14,000g for 10 min) before use. Lysates were supplemented with 1 μg of purified GST-Ric-8A (12–491)[22] and 2 μg of mouse anti-FLAG antibody (Sigma F1804), and incubated for 4 h at 4 °C with rotation. BSA-blocked Protein G agarose beads (Thermo-Scientific) were added and tubes incubated for additional 90 min at 4 °C. Beads were washed four times (4.3 mM Na2HPO4, 1.4 mM KH2PO4, pH 7.4, 137 mM NaCl, 2.7 mM KCl, 0.1% (v/v) Tween 20, 10 mm MgCl2, 5 mm EDTA and 1 mm DTT) and immunoprecipitated proteins eluted by boiling in Laemmli sample buffer. […]

Full-length GIV: full-length GIV from HEK293T cells, 1,870 amino acids
co-immunoprecipitation with nucleotide-free-mimicking mutant compared with WT: as efficiently as with the wild-type (WT) protein
